This note sets out measurements from patent US20240294551A1 (AMGEN INC., priority 2022, published 2024).

For orientation: pIC50 means the negative decadic logarithm of the IC50, by convention in mol/L.

pIC50: −log10 of the molar value.

The subject of experiment [1] is Phosphorylation of ERK1/2 in AsPC-1 cells. The experiment is described as follows: Phospho-ERK1/2 MSD Assay. Format: cell-based, human. To be noted: Homo sapiens, ASPC1, 2 h, read-out: 2 h p-ERK (AsPC-1 cells), IC50. The gist of the method:
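Read-out: MSD electrochemiluminescent detection of phosphorylated ERK1/2 in whole-cell lysates, fitted to a 4-parameter logistic curve for IC50. Prior to lysis, AsPC-1 cells (25,000 per well) received a 2 h compound dose-response at 37 °C.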

Experiment [2] addresses His-tagged KRAS G12D protein (Homo sapiens (Human), UniProt P01116, G12D). The experiment is described as follows: KRAS G12D TR-FRET Assay. Type of experiment: binding. The note with it: read-out: KRAS G12D Binding IC50. A digest of the protocol:
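His-tagged KRAS G12D (diluted to 20 nM in pH 7.4 HEPES buffer with 10 mM MgCl2 and 10 μM GDP) was preincubated with titrated compound for 30 min at room temperature. Biotinylated KRPep-2d peptide (diluted to 20 nM) was then added for 1 h, and displacement was monitored by TR-FRET.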
Background: Time-resolved FRET reads energy transfer from a long-lived donor to a nearby acceptor.

The target of experiment [3] is GDP-bound KRAS protein (aa 1-169), containing both G12D and C118A amino acid substitutions (Homo sapiens (Human), UniProt P01116, C118A/G12D). The experiment is described as follows: KRAS G12D Coupled Nucleotide Exchange Assay. Format: biochemical. To be noted: read-out: KRAS G12D Coupled Exchange IC50.
Sequence of GDP-bound KRAS protein (aa 1-169), containing both G12D and C118A amino acid substitutions (P01116 other isoform, or with tags, fused parts or gaps G12D/C118A): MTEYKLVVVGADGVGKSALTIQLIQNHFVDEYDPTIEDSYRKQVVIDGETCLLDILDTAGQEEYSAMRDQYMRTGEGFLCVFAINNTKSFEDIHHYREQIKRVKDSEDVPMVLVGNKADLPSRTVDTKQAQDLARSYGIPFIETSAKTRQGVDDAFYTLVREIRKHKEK

Sequence of His-tagged KRAS G12D protein (P01116 other isoform, or with tags, fused parts or gaps G12D): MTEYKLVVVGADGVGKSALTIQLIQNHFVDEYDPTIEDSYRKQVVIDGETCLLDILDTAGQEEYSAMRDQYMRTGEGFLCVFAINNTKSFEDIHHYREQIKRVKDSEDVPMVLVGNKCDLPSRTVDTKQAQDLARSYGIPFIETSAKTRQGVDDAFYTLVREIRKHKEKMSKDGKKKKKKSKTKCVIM

On to `Cc1cc2[nH]ncc2c2c1CCOC(=O)OC1CC3(CCCN(C3)c3nc(OC[C@@H]4CCCN4C)nc4c(F)c-2ncc34)C1` [Example 205, (1R,3S)-32-fluoro-10-methyl-24-(((2S)-1-methyl-2-pyrrolidinyl)methoxy)-4,6-dioxa-13,14,19,23,25,27-hexaazaheptacyclo[25.3.1.1~1,3~.1~18,22~.0~9,17~.0~12,16~.0~21,26~]tritriaconta-9,11,14,16,18(32),19,21,23,25-nonaen-5-one], for which the negative-log IC50 (pIC50) in experiment [1] was 7.44; in experiment [2], 7.96; in experiment [3] it was 8.22.

Turning to `Cc1cc2[nH]ncc2c2c1CCOC(=O)OC[C@H]1CN(CCO1)c1nc(OC[C@@]34CCCN3C[C@H](F)C4)nc3c(F)c-2ncc13` [Example 218], the pIC50 in experiment [1] is 7.56; in experiment [2], 8.40; in experiment [3], 8.52.

As for `Cc1cc2[nH]ncc2c2c1CCOC(=O)OC[C@@H]1CCN(C1)c1nc(OC[C@@]34CCCN3C[C@H](F)C4)nc3c(F)c-2ncc13` [Example 219], the pIC50 is 6.43 in experiment [1], 7.72 in experiment [2] and 8.00 in experiment [3].

On to `Fc1c2ncc3c(nc(OC[C@@]45CCCN4C[C@H](F)C5)nc13)N1CC(COCCCCc3c(Cl)cc4[nH]ncc4c3-2)CC(F)(F)C1` (stereo partly drawn) [Example 229], for which the pIC50 in experiment [1] is 6.47; in experiment [2], 7.57; in experiment [3] it was 7.92.

Regarding `Fc1c2ncc3c(nc(OC[C@@]45CCCN4C[C@H](F)C5)nc13)N1CCCC(Cc3ncn(n3)CCc3c(Cl)cc4[nH]ncc4c3-2)C1` (stereo partly drawn) [Example 232], the negative logarithm of the IC50 (pIC50) was 5.87 in experiment [1], 7.51 in experiment [2] and 7.74 in experiment [3].

With `Cc1cc2[nH]ncc2c2c1C[C@H](C)CCOC[C@@H]1CCCN(C1)c1nc(OC[C@@]34CCCN3C[C@H](F)C4)nc3c(F)c-2ncc13` [Example 251, (12S,17R)-30-fluoro-24-(((2R,7aS)-2-fluorotetrahydro-1H-pyrrolo[1,2-a]pyrrol-7a(5H)-yl)methoxy)-9,12-dimethyl-15-oxa-5,6,21,23,25,29-hexaazahexacyclo[24.3.1.1~17,21~.0~2,10~.0~3,7~.0~22,27~]hentriaconta-1(30),2,4,7,9,22,24,26,28-nonaene], the figures for the pIC50 in experiment [1], in experiment [2] and in experiment [3] were 6.42, 7.82 and 8.10, respectively.

`C[C@H]1CCOC[C@H]2CN(CCO2)c2nc(OC[C@@]34CCCN3C[C@H](F)C4)nc3c(F)c(ncc23)-c2c(c(Cl)cc3[nH]ncc23)C1` [Example 252, (12R,17R)-9-chloro-30-fluoro-24-(((2R,7aS)-2-fluorotetrahydro-1H-pyrrolo[1,2-a]pyrrol-7a(5H)-yl)methoxy)-12-methyl-15,18-dioxa-5,6,21,23,25,29-hexaazahexacyclo[24.3.1.1~17,21~.0~2,10~.0~3,7~.0~22,27~]hentriaconta-1(30),2,4,7,9,22,24,26,28-nonaene]: the figures for the pIC50 in experiment [1], in experiment [2] and in experiment [3] were 6.03, 7.55 and 7.77, respectively.

For `Fc1c2ncc3c(nc(OC[C@@]45CCCN4C[C@H](F)C5)nc13)N1CCCC(C1)c1cnc(o1)CCCc1c(Cl)cc3[nH]ncc3c1-2` (stereo partly drawn) [Example 255], the negative logarithm of the IC50 (pIC50) in experiment [1] is 7.11; in experiment [2], 8.00; in experiment [3], 8.05.

As to `Fc1c2ncc3c(nc(OC[C@@]45CCCN4C[C@H](F)C5)nc13)N1CCOC[C@]3(C1)C[C@@H](C3)OCCCCc1c(Cl)cc3[nH]ncc3c1-2` [Example 263, (1S,3S)-10-chloro-33-fluoro-24-(((2R,7aS)-2-fluorotetrahydro-1H-pyrrolo[1,2-a]pyrrol-7a(5H)-yl)methoxy)-4,30-dioxa-13,14,19,23,25,27-hexaazaheptacyclo[25.4.1.1~1,3~.1~18,22~.0~9,17~.0~12,16~.0~21,26~]tetratriaconta-9,11,14,16,18(33),19,21,23,25-nonaene], the pIC50 in experiment [1] is 7.37; in experiment [2], 8.22; in experiment [3], 8.40.
